Earlier results as cited in patent publication US20210186880A1, “ORAL FORMULATIONS WITH INCREASED UPTAKE” (Brown University, priority 2018, published 2021).
Like-named read-outs stand apart in the source and are kept apart here.

Legend:
[1] = biological target: T1, GLP-1 receptor (Homo sapiens, UniProt P43220)
[2] = biological target: T1, GLP-1 receptor; remark: listed apart in the source
[3] = oral
[4] = in vivo

T1 sequence (P43220 24-463, species assumed): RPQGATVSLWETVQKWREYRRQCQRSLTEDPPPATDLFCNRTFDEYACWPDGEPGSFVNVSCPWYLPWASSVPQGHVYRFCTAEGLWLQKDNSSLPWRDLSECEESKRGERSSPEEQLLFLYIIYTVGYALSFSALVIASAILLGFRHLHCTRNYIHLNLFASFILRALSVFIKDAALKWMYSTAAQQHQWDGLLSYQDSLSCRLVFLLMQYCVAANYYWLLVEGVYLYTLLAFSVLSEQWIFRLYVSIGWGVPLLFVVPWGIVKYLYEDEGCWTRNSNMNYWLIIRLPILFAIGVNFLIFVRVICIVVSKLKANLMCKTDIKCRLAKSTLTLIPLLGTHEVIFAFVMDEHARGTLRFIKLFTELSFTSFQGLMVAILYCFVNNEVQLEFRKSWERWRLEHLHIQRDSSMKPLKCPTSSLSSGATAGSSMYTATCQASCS

GLP-1(9-36)-NH2
binding affinity compared to the intact peptide, lower [1]: 100 fold
agonistic activity, decrease [2]: > 10000 fold

Glucagon-like peptide-1 [GLP-1]
ghrelin secretion [3]: suppressed ghrelin secretion
insulin release [3]: potent effect on insulin release
plasma drug concentrations ([3]; dose-escalating): rapid and dose-dependent increase in plasma drug concentrations
bioavailabilities ([3]; doses of 0.5, 1.0, 2.0, and 4.0 mg): lower than 10%
mean absolute bioavailability ([3]; relative to intravenous administration): 4%
fasting and postprandial glucose values (continuous 48-hour subcutaneous infusion, ~4-8 ng·kg^−1·min^−1): lowered fasting and postprandial glucose values

rGLP-1: rGLP-1 infused at 1.25-8.5 pmol/kg/min in a cited study
fasting serum glucose decrease (1.25 pmol/kg/min): 22.7 mg/dL
fasting serum glucose decrease (2.5 pmol/kg/min): 37.0 mg/dL
fasting serum glucose decrease (5.0 pmol/kg/min): 53.9 mg/dL
fasting serum glucose decrease (8.5 pmol/kg/min): 76.2 mg/dL

semaglutide: GLP-1 analog acylated with a spacer and C-18 fatty di-acid chain
plasma half-life [4]: long
